Experimental data reported in paper PMC5207657 (Journal of the American Chemical Society, 2016).
*1 amine or outer side, *2 acyl side, *3 side chain or, on linkers, in order; H or OH if unused. Where a SMILES comes first, the peptide text is derived from it. [ ]: non-standard residue; d: D form. X1 = O=C([C@H]1CCC[C@@H]1N[*:1])[*:2]; X2 = O=C([C@H]1CNC[C@@H]1N[*:1])[*:2]; Aib = CC(C)(N)C(=O)O

Legend:
[1] = molecular target: Human GLP-1R (glucagon-like peptide-1 receptor) (human) (UniProt P43220)
GLP-1R [2] = molecular target: T1, GLP-1R (Homo sapiens, UniProt P43220); test: GloSensor cAMP reporter assay; type: cell-based; details: read-out: cAMP Max Response (% GLP-1)
GLP-1R [3] = molecular target: T1, GLP-1R; test: β-arrestin-1 recruitment BRET^2 assay; details: for Emax: HEK293FT, read-out: β-Arrestin-1 Max Response (% GLP-1)
GLP-1R [4] = molecular target: T1, GLP-1R; test: cell-based; details: HEK293FT, read-out: β-Arrestin-2 Max Response (% GLP-1)
[5] = previous studies; cited from earlier work
mouse pancreatic islets = details: cited from earlier work
GLP-1R [6] = molecular target: T1, GLP-1R; details: within the concentration range examined (up to 1 µM)

T1 sequence (P43220 24-463): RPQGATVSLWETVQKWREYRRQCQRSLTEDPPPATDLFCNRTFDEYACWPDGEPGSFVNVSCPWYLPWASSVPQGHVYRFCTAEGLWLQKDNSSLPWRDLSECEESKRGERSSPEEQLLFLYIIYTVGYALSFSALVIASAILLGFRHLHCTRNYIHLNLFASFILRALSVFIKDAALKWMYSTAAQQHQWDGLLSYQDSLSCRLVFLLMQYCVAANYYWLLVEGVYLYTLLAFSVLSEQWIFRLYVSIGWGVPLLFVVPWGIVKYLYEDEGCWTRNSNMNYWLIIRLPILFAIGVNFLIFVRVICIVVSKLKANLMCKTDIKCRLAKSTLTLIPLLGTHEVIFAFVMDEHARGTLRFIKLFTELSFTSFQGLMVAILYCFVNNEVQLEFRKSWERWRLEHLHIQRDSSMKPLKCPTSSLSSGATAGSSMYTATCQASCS
Human GLP-1R (glucagon-like peptide-1 receptor) (human), sequence (P43220 24-463): as above

Row | cAMP production (GloSensor reporter cells), pEC50 [1] | Emax (GLP-1R [2]) [%] | Emax (GLP-1R [3]) [%] | β-arrestin-1 recruitment, result in words (GLP-1R [3]; within the concentration range examined (up to 1 µM)) | Emax (GLP-1R [4]) [%] | β-arrestin-2 recruitment, result in words (GLP-1R [6]) | Compound | control of blood glucose in vivo [5] | duration of glucose control relative to GLP-1 [5] | insulin secretagogue activity compared with GLP-1 (mouse pancreatic islets)
1 | -10.3 pEC50 (M) |  |  |  |  |  | GLP-1(7–36)NH2 (peptide) |  |  | 
2 |  | 60 ± 5 | 6 ± 8 | no significant recruitment | 13 ± 4 | no significant recruitment | CC[C@H](C)[C@H](NC(=O)[C@H](Cc1ccccc1)NC(=O)[C@H](CCC(=O)O)NC(=O)[C@H]1CNC[C@@H]1NC(=O)[C@H](C)NC(=O)[C@H](C)NC(=O)[C@H](CCC(N)=O)NC(=O)[C@H]1CCC[C@@H]1NC(=O)[C@H](CCC(=O)O)NC(=O)[C@H](CC(C)C)NC(=O)[C@H](Cc1ccc(O)cc1)NC(=O)[C@H]1CCC[C@@H]1NC(=O)[C@H](CO)NC(=O)C(C)(C)NC(=O)[C@H](CC(=O)O)NC(=O)[C@H](CO)NC(=O)[C@@H](NC(=O)[C@H](Cc1ccccc1)NC(=O)[C@@H](NC(=O)CNC(=O)[C@H](CCC(=O)O)NC(=O)C(C)(C)NC(=O)[C@@H](N)Cc1c[nH]cn1)[C@@H](C)O)[C@@H](C)O)C(=O)N[C@H]1CCC[C@@H]1C(=O)N[C@@H](Cc1c[nH]c2ccccc12)C(=O)N[C@@H](CC(C)C)C(=O)N[C@H](C(=O)N[C@H]1CNC[C@@H]1C(=O)NCC(=O)N[C@@H](CCCNC(=N)N)C(=O)NCC(N)=O)C(C)C [α/β-Peptide 4] (H-H[Aib]EGTFTSD[Aib]S[X1]YLE[X1]QAA[X2]EFI[X1]WLV[X2]GRG-NH2) | can control blood glucose in vivo | prolonged | indistinguishable
3 |  | 104 ± 1 | 80 ± 3 |  | 74 ± 4 |  | CC[C@H](C)[C@H](NC(=O)[C@H](Cc1ccccc1)NC(=O)[C@H](CCC(=O)O)NC(=O)[C@H]1CNC[C@@H]1NC(=O)[C@H](C)NC(=O)[C@H](C)NC(=O)[C@H](CCC(N)=O)NC(=O)CNC(=O)[C@H](CCC(=O)O)NC(=O)[C@H](CC(C)C)NC(=O)[C@H](Cc1ccc(O)cc1)NC(=O)[C@H]1CCC[C@@H]1NC(=O)[C@H](CO)NC(=O)[C@@H](NC(=O)[C@H](CC(=O)O)NC(=O)[C@H](CO)NC(=O)[C@@H](NC(=O)[C@H](Cc1ccccc1)NC(=O)[C@@H](NC(=O)CNC(=O)[C@H](CCC(=O)O)NC(=O)[C@H](C)NC(=O)[C@@H](N)Cc1c[nH]cn1)[C@@H](C)O)[C@@H](C)O)C(C)C)C(=O)N[C@@H](C)C(=O)N[C@@H](Cc1c[nH]c2ccccc12)C(=O)N[C@@H](CC(C)C)C(=O)N[C@H](C(=O)N[C@@H](CCCCN)C(=O)NCC(=O)N[C@@H](CCCNC(=N)N)C(=O)NCC(N)=O)C(C)C [α/β-Peptide 13] (H-HAEGTFTSDVS[X1]YLEGQAA[X2]EFIAWLVKGRG-NH2) |  |  | 
4 |  | 97 ± 2 | 41 ± 4 |  | 59 ± 2 |  | CC[C@H](C)[C@H](NC(=O)[C@H](Cc1ccccc1)NC(=O)[C@H](CCC(=O)O)NC(=O)[C@H]1CNC[C@@H]1NC(=O)[C@H](C)NC(=O)[C@H](C)NC(=O)[C@H](CCC(N)=O)NC(=O)[C@H]1CCC[C@@H]1NC(=O)[C@H](CCC(=O)O)NC(=O)[C@H](CC(C)C)NC(=O)[C@H](Cc1ccc(O)cc1)NC(=O)[C@H]1CCC[C@@H]1NC(=O)[C@H](CO)NC(=O)C(C)(C)NC(=O)[C@H](CC(=O)O)NC(=O)[C@H](CO)NC(=O)[C@@H](NC(=O)[C@H](Cc1ccccc1)NC(=O)[C@@H](NC(=O)CNC(=O)[C@H](CCC(=O)O)NC(=O)[C@H](C)NC(=O)[C@@H](N)Cc1c[nH]cn1)[C@@H](C)O)[C@@H](C)O)C(=O)N[C@@H](C)C(=O)N[C@@H](Cc1c[nH]c2ccccc12)C(=O)N[C@@H](CC(C)C)C(=O)N[C@H](C(=O)N[C@@H](CCCCN)C(=O)NCC(=O)N[C@@H](CCCNC(=N)N)C(=O)NCC(N)=O)C(C)C [α/β-Peptide 9] (H-HAEGTFTSD[Aib]S[X1]YLE[X1]QAA[X2]EFIAWLVKGRG-NH2) |  |  | 
5 |  | 96 ± 1 | 43 ± 3 |  | 63 ± 5 |  | CC[C@H](C)[C@H](NC(=O)[C@H](Cc1ccccc1)NC(=O)[C@H](CCC(=O)O)NC(=O)[C@H]1CNC[C@@H]1NC(=O)[C@H](C)NC(=O)[C@H](C)NC(=O)[C@H](CCC(N)=O)NC(=O)[C@H]1CCC[C@@H]1NC(=O)[C@H](CCC(=O)O)NC(=O)[C@H](CC(C)C)NC(=O)[C@H](Cc1ccc(O)cc1)NC(=O)[C@H]1CCC[C@@H]1NC(=O)[C@H](CO)NC(=O)[C@@H](NC(=O)[C@H](CC(=O)O)NC(=O)[C@H](CO)NC(=O)[C@@H](NC(=O)[C@H](Cc1ccccc1)NC(=O)[C@@H](NC(=O)CNC(=O)[C@H](CCC(=O)O)NC(=O)[C@H](C)NC(=O)[C@@H](N)Cc1c[nH]cn1)[C@@H](C)O)[C@@H](C)O)C(C)C)C(=O)N[C@@H](C)C(=O)N[C@@H](Cc1c[nH]c2ccccc12)C(=O)N[C@@H](CC(C)C)C(=O)N[C@H](C(=O)N[C@@H](CCCCN)C(=O)NCC(=O)N[C@@H](CCCNC(=N)N)C(=O)NCC(N)=O)C(C)C [α/β-Peptide 8] (H-HAEGTFTSDVS[X1]YLE[X1]QAA[X2]EFIAWLVKGRG-NH2) |  |  | 
6 |  | 101 ± 1 | 88 ± 6 |  | 78 ± 4 |  | CC[C@H](C)[C@H](NC(=O)[C@H](Cc1ccccc1)NC(=O)[C@H](CCC(=O)O)NC(=O)[C@H]1CNC[C@@H]1NC(=O)[C@H](C)NC(=O)[C@H](C)NC(=O)[C@H](CCC(N)=O)NC(=O)CNC(=O)[C@H](CCC(=O)O)NC(=O)[C@H](CC(C)C)NC(=O)[C@H](Cc1ccc(O)cc1)NC(=O)[C@H](CO)NC(=O)[C@H](CO)NC(=O)[C@@H](NC(=O)[C@H](CC(=O)O)NC(=O)[C@H](CO)NC(=O)[C@@H](NC(=O)[C@H](Cc1ccccc1)NC(=O)[C@@H](NC(=O)CNC(=O)[C@H](CCC(=O)O)NC(=O)[C@H](C)NC(=O)[C@@H](N)Cc1c[nH]cn1)[C@@H](C)O)[C@@H](C)O)C(C)C)C(=O)N[C@H]1CCC[C@@H]1C(=O)N[C@@H](Cc1c[nH]c2ccccc12)C(=O)N[C@@H](CC(C)C)C(=O)N[C@H](C(=O)N[C@H]1CNC[C@@H]1C(=O)NCC(=O)N[C@@H](CCCNC(=N)N)C(=O)NCC(N)=O)C(C)C [α/β-Peptide 1] (H-HAEGTFTSDVSSYLEGQAA[X2]EFI[X1]WLV[X2]GRG-NH2) |  |  | 
